Drawing on ChEMBL document CHEMBL3044708, “The trifluoromethyl transformation synthesis, crystal structure and insecticidal activities of novel 2-pyrrolecarboxamide and 2-pyrrolecarboxlate” (2012), this text covers mortality for eleven compounds.

Structures are written as SMILES.

Common to all, as to format: functional
The subject of experiment [1] is Mythimna separata. As to the kind of experiment: Insecticidal activity against Mythimna separata (Oriental armyworm) assessed as mortality at 200 mg/L.
Experiment [2] has as its system Tetranychus cinnabarinus. Briefly: Acaricidal activity against Tetranychus cinnabarinus (carmine spider mite) eggs assessed as mortality at 200 mg/L. The conditions noted are these: Egg.
Experiment [3] deals with Tetranychus cinnabarinus. As to the kind of experiment: Acaricidal activity against Tetranychus cinnabarinus (carmine spider mite) assessed as mortality at 200 mg/L.
In experiment [4] the test system is Tetranychus cinnabarinus. Briefly: Acaricidal activity against Tetranychus cinnabarinus (carmine spider mite) larvae assessed as mortality at 200 mg/L.
For experiment [5], the system named is Mythimna separata. Briefly: Insecticidal activity against Mythimna separata (Oriental armyworm) assessed as mortality at 50 mg/L.
In experiment [6] the test system is Tetranychus cinnabarinus. As to the kind of experiment: Acaricidal activity against Tetranychus cinnabarinus (carmine spider mite) larvae assessed as mortality at 100 mg/L.
Experiment [7] deals with Tetranychus cinnabarinus. Briefly: Acaricidal activity against Tetranychus cinnabarinus (carmine spider mite) assessed as mortality at 100 mg/L.
Experiment [8] concerns Mythimna separata. Briefly: Insecticidal activity against Mythimna separata (Oriental armyworm) assessed as mortality at 100 mg/L.
Experiment [9] concerns Mythimna separata. Briefly: Insecticidal activity against Mythimna separata (Oriental armyworm) assessed as mortality at 25 mg/L.
Experiment [10] concerns Tetranychus cinnabarinus. Briefly: Acaricidal activity against Tetranychus cinnabarinus (carmine spider mite) eggs assessed as mortality at 100 mg/L. Conditions: Egg.

The term mortality denotes the share of the test organisms that died. For `N#Cc1c(-c2ccc(Cl)cc2)[nH]c(C(=O)NC2CCCCC2)c1Br`, the mortality at 200 µg/mL in the experiment on Mythimna separata [1] came to 80%; in the experiment with Tetranychus cinnabarinus [2] it was 0%; with Tetranychus cinnabarinus [3], 0%; in the experiment on Tetranychus cinnabarinus [4], 0%.
For the compound `N#Cc1c(-c2ccc(Cl)cc2)[nH]c(C(=O)NCc2ccccc2)c1Br`, the mortality at 200 µg/mL in the experiment on Mythimna separata [1], in the experiment on Tetranychus cinnabarinus [2], with Tetranychus cinnabarinus [3] and in the experiment on Tetranychus cinnabarinus [4] was 0% throughout.
Turning to `N#Cc1c(-c2ccc(Cl)cc2)[nH]c(C(=O)Nc2ccc(C(F)(F)F)cc2)c1Br`, the mortality at 200 µg/mL in the experiment with Mythimna separata [1], in the experiment with Tetranychus cinnabarinus [2], in the experiment with Tetranychus cinnabarinus [3] and in the experiment with Tetranychus cinnabarinus [4] was 0% throughout.
`N#Cc1cc(C(=O)Nc2ccc(C(F)(F)F)cc2)[nH]c1-c1ccc(Cl)cc1`: the mortality at 200 µg/mL with Mythimna separata [1], in the experiment on Tetranychus cinnabarinus [2], in the experiment on Tetranychus cinnabarinus [3] and in the experiment on Tetranychus cinnabarinus [4] was 0% each time.
Regarding `CCN(CC)C(=O)c1[nH]c(-c2ccc(Cl)cc2)c(C#N)c1Br`, the mortality at 200 µg/mL in the experiment on Mythimna separata [1], in the experiment with Tetranychus cinnabarinus [2], with Tetranychus cinnabarinus [3] and in the experiment on Tetranychus cinnabarinus [4] was 0% in each case.
Take `N#Cc1cc(C(=O)Nc2ccc(C(F)(F)F)cc2)[nH]c1-c1ccc(Br)cc1`: the mortality at 200 µg/mL in the experiment on Mythimna separata [1], in the experiment on Tetranychus cinnabarinus [2], in the experiment on Tetranychus cinnabarinus [3] and in the experiment on Tetranychus cinnabarinus [4] was 0% in each case.
In the case of `CCOC(=O)c1[nH]c(-c2ccc(Cl)cc2)c(C#N)c1Br`, the mortality at 50 µg/mL with Mythimna separata [5] turned out to be 60%. Moreover, the mortality at 200 µg/mL in the experiment on Mythimna separata [1] came to 100%; in the experiment with Tetranychus cinnabarinus [2] it was 81%; in the experiment on Tetranychus cinnabarinus [3], 78%; in the experiment on Tetranychus cinnabarinus [4] it was 76%. Moreover, the mortality at 100 µg/mL was 52% in the experiment on Tetranychus cinnabarinus [6], 40% in the experiment with Tetranychus cinnabarinus [7], 100% in the experiment with Mythimna separata [8] and 54% with Tetranychus cinnabarinus [10]. For the same compound, the mortality at 25 µg/mL with Mythimna separata [9] was 0%.
For the compound `CCOCn1c(-c2ccc(Cl)cc2)c(C#N)c(Br)c1C(F)(F)F` [CHLORFENAPYR], the mortality at 50 µg/mL with Mythimna separata [5] was 100%. Moreover, the mortality at 200 µg/mL in the experiment with Mythimna separata [1], in the experiment with Tetranychus cinnabarinus [2], in the experiment with Tetranychus cinnabarinus [3] and in the experiment on Tetranychus cinnabarinus [4] was 100% throughout. In addition, the mortality at 100 µg/mL in the experiment with Tetranychus cinnabarinus [6], in the experiment with Tetranychus cinnabarinus [7], with Mythimna separata [8] and with Tetranychus cinnabarinus [10] was 100% in each case. Besides, the mortality at 25 µg/mL in the experiment on Mythimna separata [9] is 100%.
As to `N#Cc1c(-c2ccc(Cl)cc2)[nH]c(C(=O)OCc2ccccc2)c1Br`, the mortality at 50 µg/mL in the experiment with Mythimna separata [5] turned out to be 100%. Further, the mortality at 200 µg/mL was 100% in the experiment on Mythimna separata [1], 0% in the experiment with Tetranychus cinnabarinus [2], 0% in the experiment on Tetranychus cinnabarinus [3] and 0% in the experiment with Tetranychus cinnabarinus [4]. The mortality at 100 µg/mL in the experiment with Mythimna separata [8] came to 100%. The mortality at 25 µg/mL in the experiment on Mythimna separata [9] was 0%.
Turning to `COC(=O)c1[nH]c(-c2ccc(Cl)cc2)c(C#N)c1Br`, in the experiment with Mythimna separata [5], the mortality at 50 µg/mL stood at 40%. In addition, the mortality at 200 µg/mL with Mythimna separata [1] was found to be 100%; in the experiment with Tetranychus cinnabarinus [2], 0%; with Tetranychus cinnabarinus [3], 60%; with Tetranychus cinnabarinus [4], 40%. The mortality at 100 µg/mL with Mythimna separata [8] was determined as 100%. Besides, in the experiment on Mythimna separata [9], the mortality at 25 µg/mL turned out to be 0%.
With `N#Cc1c(-c2ccc(Cl)cc2)[nH]c(C(F)(F)F)c1Br`, in the experiment on Mythimna separata [5], the mortality at 50 µg/mL stood at 100%. Also, the mortality at 200 µg/mL with Mythimna separata [1], with Tetranychus cinnabarinus [2], with Tetranychus cinnabarinus [3] and with Tetranychus cinnabarinus [4] was 100% throughout. In addition, the mortality at 100 µg/mL in the experiment with Tetranychus cinnabarinus [6], in the experiment with Tetranychus cinnabarinus [7], in the experiment on Mythimna separata [8] and with Tetranychus cinnabarinus [10] was 100% throughout. In the experiment on Mythimna separata [9], the mortality at 25 µg/mL worked out at 100%.
